Laboratory results from patent US8802597B2, “Herbicidal pyrimidines” (E I du Pont de Nemours and Company, priority 2003, dated 2014).

How the values were obtained:
Assay in all cases: Test C pre/postemergence
Type in all cases: in vivo
[1] = system: woolly cupgrass (Eriochloa villosa); details: for Cupgrass, Woolly plant response rating: scale 0 to 100 (0 no effect, 100 complete control)
How it was run: (§1)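 Applications: preemergence onto seeded soil and postemergence onto 1- to 4-leaf seedlings, compound carried in non-phytotoxic solvent plus surfactant. Kept in greenhouse 12 to 14 days. Scored visually relative to untreated controls, 0 (no effect) to 100 (complete control).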

soybean (Glycine max) = details: for Soybean plant response rating: scale 0 to 100 (0 no effect, 100 complete control)
How it was run: as §1

[2] = system: goosegrass (Eleusine indica); details: for Goosegrass plant response rating: scale 0 to 100 (0 no effect, 100 complete control)
How it was run: as §1

[3] = system: Surinam grass (Brachiaria decumbens); details: for Surinam Grass plant response rating: scale 0 to 100 (0 no effect, 100 complete control)
How it was run: as §1

[4] = system: giant foxtail (Setaria faberii); details: for Foxtail, Giant plant response rating: scale 0 to 100 (0 no effect, 100 complete control)
How it was run: as §1

[5] = system: pigweed (Amaranthus retroflexus); details: for Pigweed plant response rating: scale 0 to 100 (0 no effect, 100 complete control)
How it was run: as §1

[6] = system: bermudagrass (Cynodon dactylon)
How it was run: as §1

[7] = system: crabgrass (Digitaria sanguinalis); details: for Crabgrass plant response rating: scale 0 to 100 (0 no effect, 100 complete control)
How it was run: as §1

[8] = system: johnsongrass (Sorghum halepense); details: for Johnsongrass plant response rating: scale 0 to 100 (0 no effect, 100 complete control)
How it was run: as §1

[9] = system: morningglory (Ipomoea coccinea); details: for Morningglory plant response rating: scale 0 to 100 (0 no effect, 100 complete control)
How it was run: as §1

[10] = system: common (oilseed) sunflower (Helianthus annuus); details: Preemergence
How it was run: as §1

kochia (Kochia scoparia) = details: for Kochia plant response rating: scale 0 to 100 (0 no effect, 100 complete control)
How it was run: as §1

[11] = Postemergence, 250 g ai/ha, scale 0 to 100
[12] = Preemergence, 31 g ai/ha, scale 0 to 100, 0 no effect, 100 complete control
[13] = Preemergence, 62 g ai/ha, scale 0 to 100, 0 no effect, 100 complete control
[14] = Preemergence, 125 g ai/ha, scale 0 to 100
[15] = Preemergence, 250 g ai/ha, scale 0 to 100

CC(C)COC(=O)c1nc(C2CC2)nc(N)c1Br [Compound 17]
45: Plant response rating (scale of 0 to 100), Pigweed ([5]; Postemergence, 31 g ai/ha)
85: Plant response rating, Cupgrass, Woolly [1, 15] | Plant response rating (scale of 0 to 100), Soybean (soybean (Glycine max); Postemergence, 31 g ai/ha) | Plant response rating, Kochia (kochia (Kochia scoparia); [15])
95: Soybean plant response rating (soybean (Glycine max); Postemergence, 62 g ai/ha) | Plant response rating, Soybean (soybean (Glycine max); [14]) | Plant response rating, Pigweed [5, 11] | Plant response rating, Pigweed [5, 12] | Plant response rating (scale of 0 to 100), Morningglory ([9]; Postemergence, 31 g ai/ha) | Morningglory plant response rating ([9]; Postemergence, 62 g ai/ha) | Plant response rating, Morningglory [9, 13] | Plant response rating, Sunflower ([10]; 62 g ai/ha, scale 0 to 100, 0 no effect, 100 complete control)
35: Plant response rating, Foxtail, Giant [4, 11]
0: Plant response rating (scale of 0 to 100), Cupgrass, Woolly ([1]; Postemergence, 31 g ai/ha) | Cupgrass, Woolly plant response rating ([1]; Postemergence, 62 g ai/ha) | Cupgrass, Woolly plant response rating ([1]; Postemergence, 125 g ai/ha) | Plant response rating, Cupgrass, Woolly [1, 12] | Plant response rating, Cupgrass, Woolly [1, 13] | Plant response rating (scale of 0 to 100), Goosegrass ([2]; Postemergence, 31 g ai/ha) | Goosegrass plant response rating ([2]; Postemergence, 62 g ai/ha) | Goosegrass plant response rating ([2]; Postemergence, 125 g ai/ha) | Plant response rating, Goosegrass [2, 11] | Plant response rating, Goosegrass [2, 12] | Plant response rating, Goosegrass [2, 13] | Plant response rating, Goosegrass [2, 14] | Plant response rating, Goosegrass [2, 15] | Plant response rating (scale of 0 to 100), Surinam Grass ([3]; Postemergence, 31 g ai/ha) | Surinam Grass plant response rating ([3]; Postemergence, 62 g ai/ha) | Surinam Grass plant response rating ([3]; Postemergence, 125 g ai/ha) | Plant response rating, Surinam Grass [3, 11] | Plant response rating, Surinam Grass [3, 12] | Plant response rating, Surinam Grass [3, 13] | Plant response rating, Surinam Grass [3, 14] | Plant response rating, Surinam Grass [3, 15] | Plant response rating (scale of 0 to 100), Foxtail, Giant ([4]; Postemergence, 31 g ai/ha) | Foxtail, Giant plant response rating ([4]; Postemergence, 62 g ai/ha) | Foxtail, Giant plant response rating ([4]; Postemergence, 125 g ai/ha) | Plant response rating, Foxtail, Giant [4, 12] | Plant response rating, Foxtail, Giant [4, 13] | Plant response rating (scale of 0 to 100), Bermudagrass ([6]; Postemergence, 31 g ai/ha) | Bermudagrass plant response rating ([6]; Postemergence, 62 g ai/ha, scale 0 to 100 (0 no effect, 100 complete control)) | Plant response rating, Bermudagrass [6, 11] | Plant response rating, Bermudagrass ([6]; Postemergence, 125 g ai/ha, scale 0 to 100) | Plant response rating, Bermudagrass [6, 12] | Plant response rating, Bermudagrass [6, 13] | Plant response rating, Bermudagrass [6, 14] | Plant response rating, Bermudagrass [6, 15] | Plant response rating (scale of 0 to 100), Crabgrass ([7]; Postemergence, 31 g ai/ha) | Crabgrass plant response rating ([7]; Postemergence, 62 g ai/ha) | Plant response rating, Crabgrass [7, 12] | Plant response rating, Crabgrass [7, 13] | Plant response rating (scale of 0 to 100), Johnsongrass ([8]; Postemergence, 31 g ai/ha) | Johnsongrass plant response rating ([8]; Postemergence, 62 g ai/ha) | Plant response rating, Johnsongrass [8, 12] | Plant response rating, Johnsongrass [8, 13] | Plant response rating, Kochia (kochia (Kochia scoparia); [12]) | Plant response rating, Kochia (kochia (Kochia scoparia); [13])
90: Plant response rating, Soybean (soybean (Glycine max); [13])
70: Plant response rating, Soybean (soybean (Glycine max); [12]) | Plant response rating, Morningglory [9, 12]
80: Plant response rating, Crabgrass [7, 15]
65: Pigweed plant response rating ([5]; Postemergence, 62 g ai/ha) | Plant response rating, Crabgrass [7, 11]
75: Plant response rating, Foxtail, Giant [4, 15] | Pigweed plant response rating ([5]; Postemergence, 125 g ai/ha) | Plant response rating, Johnsongrass [8, 15]
25: Plant response rating, Kochia (kochia (Kochia scoparia); [14])
40: Johnsongrass plant response rating ([8]; Postemergence, 125 g ai/ha)
55: Plant response rating, Johnsongrass [8, 14]
20: Plant response rating, Cupgrass, Woolly [1, 11] | Plant response rating, Cupgrass, Woolly [1, 14] | Plant response rating, Foxtail, Giant [4, 14] | Crabgrass plant response rating ([7]; Postemergence, 125 g ai/ha) | Plant response rating, Crabgrass [7, 14]
60: Plant response rating, Johnsongrass [8, 11] | Plant response rating, Sunflower ([10]; 31 g ai/ha, scale 0 to 100, 0 no effect, 100 complete control)
100: Soybean plant response rating (soybean (Glycine max); Postemergence, 125 g ai/ha) | Plant response rating, Soybean (soybean (Glycine max); [11]) | Plant response rating, Soybean (soybean (Glycine max); [15]) | Plant response rating, Pigweed [5, 13] | Plant response rating, Pigweed [5, 14] | Plant response rating, Pigweed [5, 15] | Morningglory plant response rating ([9]; Postemergence, 125 g ai/ha) | Plant response rating, Morningglory [9, 11] | Plant response rating, Morningglory [9, 14] | Plant response rating, Morningglory [9, 15] | Plant response rating, Sunflower ([10]; 125 g ai/ha, scale 0 to 100) | Plant response rating, Sunflower ([10]; 250 g ai/ha, scale 0 to 100) | Plant response rating (scale of 0 to 100), Kochia (kochia (Kochia scoparia); Postemergence, 31 g ai/ha) | Kochia plant response rating (kochia (Kochia scoparia); Postemergence, 62 g ai/ha) | Kochia plant response rating (kochia (Kochia scoparia); Postemergence, 125 g ai/ha) | Plant response rating, Kochia (kochia (Kochia scoparia); [11])
